One may read the inhibition as how much of the control response was suppressed. What is called IC50 is the concentration that inhibits the measured activity by half. A high value points to lower potency. As usually defined, the Tmax is the time from dosing to the highest level. Broadly, the Cmax is the maximum level reached in the sampled fluid or tissue.

This note sets out measurements from patent publication US20080312287A1, “Compound and Methods For the Treatment of Cancer and Malaria” (University of Washington, priority 2005, published 2008).

Like-named read-outs stand apart in the source and are kept apart here. Marks after values point to notes of the source that are not given here.

Data set [1] relates to P. falciparum 3D7. The data set is described as follows: P. falciparum ED50 determination, [3H]-hypoxanthine incorporation, strain 3D7. The conditions noted are these: concentration decreasing hypoxanthine incorporation into parasites twofold, read-out: ED50 3D7. The class given is cell-based, Plasmodium falciparum. From the text:
(§1) Plasmodium strains. The P. falciparum strains used in this study were 3D7 (Netherlands, sensitive) provided by Dr. Pradipsinh Rathod from the University of Washington and K1 (Thailand, ChQ-R, Pyr-R) obtained from the MR4Unit of the American Type Culture Collection (ATCC, Manassas, Va.).
(§2) P. falciparum culture. Strains of P. falciparum were sustained in vitro based on experimental techniques as described by Trager and Jensen.^26 Cultures were maintained in RPMI-1640 (Sigma, St. Louis, […].) with 2 mM L-glutamine, 25 mM HEPES, 33 mM NaHCO3, 20 μg/ml gentamicin sulfate and 20% (v/v) heat-inactivated human plasma type A+ (R^P-20P). Type A+ erythrocytes were obtained from lab donors, washed three times with RPMI, re-suspended in 50% RPMI, and stored at 4° C. Parasites were grown in 10 mL of a 2% hematocrit/RP-20P (v/v) in 50-mL flasks under a 5% CO2, 5% O2, and 90% N2 atmosphere.
(§3) P. falciparum ED50 determination. One […]L of PFTI dissolved in DMSO was added to each well of a 96-well plate followed by the addition of 200 μL of P. falciparum culture at parasitemia and hematocrit of 0.5%. Plates were flushed with 5% CO2, 5% O2, and 90% N2 then incubated at 37° C. for 48 hr. [8-^3H]-hypoxanthine (0.3 μCi, 20 Ci/mmol, American Radiolabeled Chemicals) in 30 μL RP-20P was added to cultures and incubated for an additional 24 hours. Cells were harvested onto filter mats by a Multiharvester (Skatron, Sunnyvale, Calif.) and the radioactivity incorporated into the parasites was counted on a β-scintillation counter. The background level detected with uninfected erythrocytes was subtracted from the data. The ^3H-incorporation into infected RBCs with 1 μL DMSO vehicle alone represents 100% malaria growth. ED50 values were determined by linear regression analysis of the plots of ^3H-hypoxanthine incorporation versus concentration of compound.

Data set [2] has as its target T1, PfPFT (Plasmodium falciparum, UniProt Q8I503+Q8IHP6).
T1 sequence (Q8I503 1-521): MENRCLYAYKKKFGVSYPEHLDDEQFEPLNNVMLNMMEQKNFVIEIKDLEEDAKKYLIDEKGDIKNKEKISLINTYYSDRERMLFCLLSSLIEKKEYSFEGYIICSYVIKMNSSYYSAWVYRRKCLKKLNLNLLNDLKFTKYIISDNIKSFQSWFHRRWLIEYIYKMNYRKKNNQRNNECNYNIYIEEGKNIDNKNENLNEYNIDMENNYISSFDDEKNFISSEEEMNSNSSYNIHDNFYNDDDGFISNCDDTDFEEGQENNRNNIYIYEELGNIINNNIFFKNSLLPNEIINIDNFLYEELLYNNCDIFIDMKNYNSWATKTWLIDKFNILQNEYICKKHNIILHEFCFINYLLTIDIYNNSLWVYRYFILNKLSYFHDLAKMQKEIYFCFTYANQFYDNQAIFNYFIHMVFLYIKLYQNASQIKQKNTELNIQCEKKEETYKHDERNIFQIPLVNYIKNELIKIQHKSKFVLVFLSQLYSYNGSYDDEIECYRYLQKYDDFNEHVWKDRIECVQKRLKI
T1 sequence (Q8IHP6 1-923): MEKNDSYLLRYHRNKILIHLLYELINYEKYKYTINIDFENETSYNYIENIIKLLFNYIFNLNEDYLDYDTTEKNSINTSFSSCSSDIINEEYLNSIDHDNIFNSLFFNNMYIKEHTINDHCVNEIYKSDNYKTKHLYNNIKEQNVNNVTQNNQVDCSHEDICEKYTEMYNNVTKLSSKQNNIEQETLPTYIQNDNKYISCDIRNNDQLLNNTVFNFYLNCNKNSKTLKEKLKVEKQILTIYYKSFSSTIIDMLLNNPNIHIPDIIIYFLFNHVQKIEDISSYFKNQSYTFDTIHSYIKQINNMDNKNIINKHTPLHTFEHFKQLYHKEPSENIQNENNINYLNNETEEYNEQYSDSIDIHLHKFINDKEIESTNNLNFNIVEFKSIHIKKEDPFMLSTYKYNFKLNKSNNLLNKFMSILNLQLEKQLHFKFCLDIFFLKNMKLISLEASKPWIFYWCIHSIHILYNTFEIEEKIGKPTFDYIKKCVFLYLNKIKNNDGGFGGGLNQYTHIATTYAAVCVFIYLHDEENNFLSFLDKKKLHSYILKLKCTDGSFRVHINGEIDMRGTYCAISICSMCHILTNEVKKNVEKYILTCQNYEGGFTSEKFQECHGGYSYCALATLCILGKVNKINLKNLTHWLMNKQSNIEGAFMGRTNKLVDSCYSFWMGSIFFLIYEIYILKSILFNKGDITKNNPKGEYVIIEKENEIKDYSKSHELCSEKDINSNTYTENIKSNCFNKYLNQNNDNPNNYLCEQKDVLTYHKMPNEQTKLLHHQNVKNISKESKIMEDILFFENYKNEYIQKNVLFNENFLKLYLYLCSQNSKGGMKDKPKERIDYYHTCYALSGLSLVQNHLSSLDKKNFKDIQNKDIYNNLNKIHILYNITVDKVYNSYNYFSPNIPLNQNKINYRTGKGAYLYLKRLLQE
The data set is described as follows: PfPFT inhibition, scintillation proximity assay with partially purified PfPFT. The class given is biochemical. The conditions noted are these: for inhibition at 0.005 µM: read-out: % Inhibition of PfPFT at 5 nM, inhibitor at 5 nM; for inhibition at 0.05 µM: read-out: % Inhibition of PfPFT at 50 nM, inhibitor at 50 nM; for Selectivity: ratio of rat to Plasmodium PFT activity; for IC50: concentration decreasing transferase activity twofold. (In general: SPA uses beads or plates that emit light when radiolabelled molecules are held near them.)

Data set [3] deals with P. falciparum K1. Put plainly: P. falciparum ED50 determination, [3H]-hypoxanthine incorporation, strain K1. The note with it: concentration decreasing hypoxanthine incorporation into parasites twofold, read-out: ED50 K1. The class given is cell-based, Plasmodium falciparum.
Text: as §1, §2, §3

Data set [4] addresses Rat FTase (Rattus norvegicus, UniProt Q02293+Q04631). Put plainly: Rat farnesyltransferase IC50 determination. The note with it: concentration decreasing transferase activity twofold. The class given is biochemical.
Data set [5] is described as follows: Oral availability in mice, inhibitor concentration in plasma. The class given is in vivo. The note with it: mouse, in vivo, po.
A short description of data set [6]: Oral availability in rats, inhibitor concentration in plasma. The class given is in vivo. The conditions noted are these: rat, in vivo, po.
The mark [7] stands for this setting: Plasmodium falciparum, 3D7, strain 3D7.
[8] abbreviates: Plasmodium falciparum, K1, strain K1.

For the compound `Cn1cnc(S(=O)(=O)N(CCN(Cc2cncn2C)c2ccc(C#N)cc2)Cc2ccccn2)c1` [Compound 8aa, 1-Methyl-1H-imidazole-4-sulfonic acid {2-[(4-cyano-phenyl)-(3-methyl-3H-imidazol-4-ylmethyl)-amino]-ethyl}-pyridin-2-ylmethyl-amide amide], the EC50 in data set [1] (setting [7]) was 750 nM. For the same compound, in data set [2], the inhibition at 0.005 µM was 64% and the inhibition at 0.05 µM is 93%. Also, the EC50 in data set [3] (setting [8]) was determined as 1000 nM. Besides, the IC50 in data set [4] was determined as 43 nM.
`Cn1cnc(S(=O)(=O)N(CCN(Cc2cncn2C)c2ccc(C#N)cc2)Cc2ccc(C#N)cc2)c1` [Compound 8ae, 1-Methyl-1H-imidazole-4-sulfonic acid (4-cyano-benzyl)-{2-[(4-cyano-phenyl)-(3-methyl-3H-imidazol-4-ylmethyl)-amino]-ethyl}-amide]: the EC50 in data set [1] (setting [7]) was 1600 nM. In data set [2], the Selectivity is 3.7, the inhibition at 0.005 µM worked out at 24% and the inhibition at 0.05 µM was determined as 48%. Further, the EC50 in data set [3] (setting [8]) came to 4100 nM. In addition, it took 350 nM to reach half-maximal inhibition in data set [4] (IC50).
For the compound `Cn1cnc(S(=O)(=O)N(CCN(Cc2cncn2C)c2ccc(Br)cc2)Cc2ccccc2)c1` [Compound 8b, 1-Methyl-1H-imidazole-4-sulfonic acid benzyl-{2-[(4-bromo-phenyl)-(3-methyl-3H-imidazol-4-ylmethyl)-amino]-ethyl}-amide], in data set [1] (setting [7]), the EC50 was found to be 675 nM. In addition, in data set [2], the inhibition at 0.005 µM was 86% and the inhibition at 0.05 µM worked out at 95%. Moreover, in data set [3] (setting [8]), the EC50 was 3200 nM. Further, the IC50 in data set [4] was found to be 290 nM.
Consider `Cc1ccccc1CN(CCN(Cc1cncn1C)c1ccc(-c2ccccc2)cc1)S(=O)(=O)c1cn(C)cn1` [Compound 8c, 1-Methyl-1H-imidazole-4-sulfonic acid {2-[biphenyl-4-yl-(3-methyl-3H-imidazol-4-ylmethyl)-amino]-ethyl}-(2-methyl-benzyl)-amide], for which the EC50 amounted to 2500 nM in data set [1] (setting [7]), 2600 nM in data set [1] (strain 3D7), 2600 nM in data set [3] (setting [8]) and 2500 nM in data set [3] (strain K1). In addition, the IC50 in data set [2] was 8 nM; in data set [4], more than 1000 nM. In addition, the inhibition at 0.005 µM in data set [2] worked out at 49%. Also, in data set [2], the inhibition at 0.05 µM was determined as 85%.
Regarding `Cn1cncc1CN(CCN(Cc1ccccc1)S(=O)(=O)c1ccccc1)c1ccc(C#N)cc1` [Compound 8e, N-Benzyl-N-{2-[(4-cyano-phenyl)-(3-methyl-3H-imidazol-4-ylmethyl)-amino]-ethyl}-benzenesulfonamide], the EC50 in data set [1] (setting [7]) was 2500 nM. In data set [2], the Selectivity was 1.5, the inhibition at 0.005 µM was 18% and the inhibition at 0.05 µM is 69%. The EC50 in data set [3] (setting [8]) came out at 2250 nM. The compound further had an IC50 in data set [4] of 13 nM.
For the compound `Cn1cncc1CN(CCN(Cc1ccccc1)S(=O)(=O)c1ccccn1)c1ccc(C#N)cc1` [Compound 8g, Pyridine-2-sulfonic acid benzyl-{2-[(4-cyano-phenyl)-(3-methyl-3H-imidazol-4-ylmethyl)-amino]-ethyl}-amide], the EC50 in data set [1] (setting [7]) came out at 570 nM. In data set [5], the Tmax stood at 30 min. For the same compound, in data set [2], the IC50 is 2.8 nM, the inhibition at 0.005 µM is 64% and the inhibition at 0.05 µM is 95%. The EC50 in data set [3] (setting [8]) stood at 2300 nM.
Regarding `CN(C)c1cccc2c(S(=O)(=O)N(CCN(Cc3cncn3C)c3ccc(C#N)cc3)Cc3ccccc3)cccc12` [Compound 8i, 5-Dimethylamino-naphthalene-1-sulfonic acid benzyl-{2-[(4-cyano-phenyl)-(3-methyl-3H-imidazol-4-ylmethyl)-amino]-ethyl}-amide], the EC50 in data set [1] (setting [7]) came to 300 nM. Also, in data set [2], the Selectivity is given as 3.3, the inhibition at 0.005 µM stood at 6% and the inhibition at 0.05 µM turned out to be 29%. In addition, the EC50 in data set [3] (setting [8]) turned out to be 388 nM. This compound registered an IC50 in data set [4] of 180 nM.
On to `Cn1cnc(S(=O)(=O)N(CCN(Cc2cncn2C)c2ccc(C#N)cc2)CC(=O)NC(C)(C)C)c1` [Compound 8o, N-tert-Butyl-2-[{2-[(4-cyano-phenyl)-(3-methyl-3H-imidazol-4-ylmethyl)-amino]-ethyl}-(1-methyl-1H-imidazole-4-sulfonyl)-amino]-acetamide], for which the EC50 in data set [1] (setting [7]) is 2800 nM; in data set [3] (setting [8]) it was more than 5000 nM. Further, the IC50 in data set [2] and in data set [4] was more than 1000 nM throughout. Also, in data set [2], the inhibition at 0.005 µM is 4%. In data set [2], the inhibition at 0.05 µM amounted to 6%.
With `Cn1cnc(S(=O)(=O)N(CCN(Cc2cncn2C)c2ccc(C#N)cc2)CC2CCN(C(=O)OC(C)(C)C)CC2)c1` [Compound 8v, 4-{[{2-[(4-Cyano-phenyl)-(3-methyl-3H-imidazol-4-ylmethyl)-amino]-ethyl}-(1-methyl-1H-imidazole-4-sulfonyl)-amino]-methyl}-piperidine-1-carboxylic acid tert-butyl ester], the EC50 in data set [1] (setting [7]) was 88 nM. Further, the Tmax in data set [5] was not above 40 min. Besides, in data set [2], the midpoint of inhibition, the IC50, lay at 1.2 nM; the inhibition at 0.005 µM was found to be 81%; the inhibition at 0.05 µM stood at 96%. Further, the EC50 in data set [3] (setting [8]) is 54 nM.
Turning to `Cc1ccccc1CN(CCN(Cc1cncn1C)c1ccc(C#N)cc1)S(=O)(=O)c1cn(C)cn1` [Compound 8x, 1-Methyl-1H-imidazole-4-sulfonic acid {2-[(4-cyano-phenyl)-(3-methyl-3H-imidazol-4-ylmethyl)-amino]-ethyl}-(2-methyl-benzyl)-amide], the “Oral Availability AUC (^d, rats)” value in data set [6] is given as 103^d μM · min. Further, the figures for the EC50 in data set [1] (setting [7]) and in data set [3] (setting [8]) were 93 nM and 150 nM, respectively. In addition, the Tmax in data set [5] was 40 min. The compound also yielded a Cmax in data set [5] (1 mg) of 1050 nM. Besides, in data set [2], the inhibition at 0.005 µM stood at 95%. In data set [2], the inhibition at 0.05 µM was found to be 99%. The same compound returned an IC50 in data set [4] of 15.5 nM.
